# In patent publication US10232023B2, “Methods for treatment of and prophylaxis against inflammatory disorders” (THE UNIVERSITY OF UTAH RESEARCH FOUNDATION, priority 2013, dated 2019):
# B1: recombinant serpin B1: serine protease inhibitor expressed as a cytoplasmic protein by human PMNs (protein, UniProt P30740 1-379, looked up)
# Leukocyte elastase inhibitor: MEQLSSANTRFALDLFLALSENNPAGNIFISPFSISSAMAMVFLGTRGNTAAQLSKTFHFNTVEEVHSRFQSLNADINKRGASYILKLANRLYGEKTYNFLPEFLVSTQKTYGADLASVDFQHASEDARKTINQWVKGQTEGKIPELLASGMVDNMTKLVLVNAIYFKGNWKDKFMKEATTNAPFRLNKKDRKTVKMMYQKKKFAYGYIEDLKCRVLELPYQGEELSMVILLPDDIEDESTGLKKIEEQLTLEKLHEWTKPENLDFIEVNVSLPRFKLEESYTLNSDLARLGVQDLFNSSKADLSGMSGARDIFISKIVHKSFVEVNEEGTEAAAATAGIATFCMLMPEENFTADHPFLFFIRHNSSGSILFLGRFSSP
# Legend:
# PMA-stimulated PMNs = experiment: Nuclear decondensation (nuclear area) assay; format: cell-based, human; settings: CRISPP 1 nM, SCR 1 nM, Sivelestat 200 nM; PMA 20 nM, 2 hours; vs PMA alone
# Method: Using techniques modified from Papayannopoulos et al., J Cell Biol, 2010, 191: 677-691, nuclear area assays were used for PMA-stimulated PMNs as a surrogate for NET formation. PMNs were stimulated with PMA (20 nM) for 2 hours and then visualized via live cell imaging with a cell permeable DNA dye. Images from 5 randomly selected high power fields were captured and the nuclear area of all PMNs on each visual field was quantitated using IMAGEJ software. Nuclear areas were compared for PMNs stimulated with PMA with PMNs pre-incubated with CRISPP (1 nM), SCR (1 nM), or the NE inhibitor Sivelestat (200 nM). […] Next, immunocytochemical experiments designed to see whether CRISPP is taken up by human PMNs were performed. The CRISPP-F and SCR-F peptides and FLAG-tag specific primary antibodies were used to assess cellular location. […] CRISPP can inhibit nuclear chromatin decondensation, which is consistent with the selective inhibition of NET formation by CRISPP and nNIF. This process may involve inhibition of NE activity.
# PMNs were isolated and resuspended to 2×10^6 cells/mL in M-199 media. […] 5 randomly selected high power visual fields per sample were captured via confocal microscopy and analyzed for nuclear area using the cell-permeable, fluorescent DNA dye SYTO Green. The nuclear pixel areas of >100 individual cells per high power field were determined using IMAGE-J software (NIH).
# NET formation = NET formation inhibition (test not described); settings: no test described
# LPS-stimulated PMNs = experiment: NET formation by LPS-stimulated adult human PMNs (live cell imaging, histone H3 release); format: cell-based; settings: LPS 100 ng/mL; for NET formation by LPS-stimulated PMNs: healthy adult PMNs, peptide/protein pre-incubation 1 hour (1 nM where stated)
# [1] = system: human PMNs stimulated with phorbol 12-myristate acetate (PMA); settings: background statement; cited from earlier work
# [2] = system: PMNs isolated from healthy adult donors; experiment: PMN chemotaxis, modified Boyden Chamber assay; format: cell-based, human; settings: 1 nM, one hour pre-incubation; IL-8 2 ng/mL
# Method: Chemotaxis by PMNs isolated from healthy adult donors was assessed using a modified Boyden Chamber assay±a one hour pre-incubation […] (1 nM), or SCR (1 nM). Recombinant human IL-8 (2 ng/mL) was used as the chemoattractant. Chemotaxis through a 5 micron filter was determined by counting PMNs in 10 randomly selected high-power fields as previously described in Hill et al., Lancet, 1974, 2: 617-619. In separate experiments, […], or SCR (all at 1 nM) were evaluated for chemoattractant activity using the same system.
# [3] = system: PMA-stimulated adult PMNs; experiment: NET formation by PMA-stimulated adult human PMNs; format: cell-based; settings: pre-incubation 1 nM, 1 hour; PMA 20 nM
# [4] = system: LPS-stimulated human PMNs; experiment: Reactive oxygen species generation, dihydrorhodamine assay; format: cell-based; settings: 1 nM, 1 hour pre-incubation; LPS 100 ng/mL
# Method: Human PMNs isolated from healthy adult whole blood were resuspended to a concentration of 2×10^6 cells/mL in M-199 media and pre-incubated±[…] (1 nM) or SCR (1 nM) peptide for 1 hour under standard conditions. The PMNs were then stimulated with LPS (100 ng/mL) for 1 hour, washed, and resuspended with a dihydrorhodamine (7.25 mM; D-632, MOLECULAR PROBES) and catalase (1000 Units/mL; C-40, SIGMA) mixture and incubated at 37° C. for 10 minutes. After incubation, samples were placed at 4° C. and analyzed for ROS-dependent fluorescence using a BECTON-DICKINSON FACSCAN device equipped with CELLQUEST software.
# [5] = system: Outbred Swiss-Webster mice, E. coli peritonitis; experiment: Murine E. coli peritonitis: peritoneal fluid and membrane analysis; format: in vivo, mouse
# Method: Outbred Swiss-Webster mice were injected intraperitoneally with 4.5×10^7 colony-forming units (cfu) of E. coli±nNIF, CRISPP, or scrambled control peptide (SCR) (10 mg/kg, IP injection) one hour prior to E. coli infection. At the 3 hour time point after infection, 3 mice were sacrificed and the peritoneal fluid and peritoneal tissue were collected and analyzed for leukocyte accumulation, bacteriology, and in vivo NET formation. […] See Fuchs et al., J Cell Biol, 2007, 176: 231-241. The number of E. coli cfu/mL of peritoneal fluid in CRISPP pretreated mice was also determined compared to SCR mice (see FIG. 17C).
# Animals were treated with CRISPP (10 mg/kg), nNIF (10 mg/kg), or SCR (10 mg/kg) by i.p. injection 1 hour prior to infection (E. coli, 4.5×10^7 cfu/mouse, i.p. injection) or stimulation (LPS, 25 mg/kg, i.p. injection (SIGMA)). Control mice were injected with saline alone. The mice were sacrificed in a CO2 chamber 3 hours post-infection/stimulation with the peritoneal contents harvested and analyzed. Briefly, the skin of the abdomen was cut open in the midline after thorough disinfection and without injuring the muscle. The peritoneal cavity was lavaged with sterile saline solution ([…]) and analyzed for in vivo NET formation, bacteriology, and leukocyte accumulation. NETs in the peritoneal fluid were qualitatively and quantitatively analyzed using live cell imaging with confocal microscopy and histone release assays. NETs on the inner surface of the peritoneal membrane were assessed quantitatively using live cell imaging followed by standardized grid analysis of 5 randomly selected high power visual fields per tissue sample (IMAGE-J software, NIH). Peritoneal bacterial colony forming units (cfu) counts were quantified by permeabilizing all recovered leukocytes with 0.1% Triton-X 100 for 10 minutes and performing serial dilutions and bacterial cultures on 5% sheep blood agar plates (HARDY DIAGNOSTICS). After a 24-hour incubation, bacterial counts were determined. Total leukocyte counts in the peritoneal lavage were determined in Neubauer chambers using an optical microscope after dilution in Turk's solution (2% acetic acid). Differential leukocyte analysis was performed using a 60× oil immersion objective to assess morphology of cyto-centrifuged cells stained with May-Grunwald-Giemsa dye.
# [6] = system: PMNs isolated from healthy adult donors; experiment: PMN phagocytosis of E. coli BIOPARTICLES; format: cell-based, human; settings: 1 nM, 60 minutes pre-incubation, 4 hours
# Method: PMNs were isolated from blood of healthy adult donors and resuspended in M-199 at a concentration of 2×10^6 cells/mL. Leukocytes were pre-incubated for 60 minutes under standard conditions with cytochalasin B and […] (1 nM), or SCR (1 nM). Following pre-incubation, PMNs were incubated with 6×10^6 E. coli BIOPARTICLES (E-13231, MOLECULAR PROBES) on a rotator for 4 hours under standard conditions. The PMNs were then washed and resuspended in the starting volume in M-199 before being spun down onto glass coverslips and fixed with 2% paraformaldehyde for 10 minutes and permeabilized with 0.1% Triton-X-100 for 10 minutes. Leukocytes were stained with WGA 555 (INVITROGEN) and TO[…] (MOLECULAR PROBES) and randomly selected high power visual field images were captured using confocal microscopy. IMAGE-J software (NIH) was used to determine the percentage of PMNs that were positive for fluorescently labeled E. coli BIOPARTICLES detected at 488 nm.
# [7] = 10 mg/kg IP pretreatment, vs SCR control
molecule,measurement,setting,value
"CC(C)(C)C(=O)Oc1ccc(S(=O)(=O)Nc2ccccc2C(=O)NCC(=O)O)cc1 [Sivelestat, reference compound]",Nuclear area of PMA-stimulated PMNs,PMA-stimulated PMNs,significant decrease in nuclear area
"A1ATm^358: cleavage fragment of full length A1AT (SEQ ID NO:3), an nNIF-related peptide (PMSIPPEVKFNKPFVFLMIEQNTKSPLFMGKVVNPTQK; homo sapiens)",NET formation,NET formation,inhibit NET formation
alpha 1-antitrypsin [A1AT],NET formation by LPS-stimulated PMNs,LPS-stimulated PMNs,failed to inhibit NET formation
same,"NET formation by LPS-stimulated PMNs, recombinant AAT in nNIF-depleted cord blood plasma","LPS-stimulated PMNs; rAAT (1 nM) added to nNIF-depleted cord blood plasma, listed as recombinant full length A1AT",did not inhibit NET formation
same,NET formation in PMA-stimulated human PMNs,[1],does not inhibit NET formation
neonatal NET-Inhibitory Factor (KAVLTIDEKGTEAAGAMFLEAIPMSIPPEVKFNKPFVFLMIEQNTKSPLFMGKVVNPTQK; listed as Homo sapiens) [nNIF],NET formation by LPS-stimulated PMNs,LPS-stimulated PMNs,significantly inhibited NET formation
same,PMN chemotaxis,[2],did not significantly inhibit
same,NET formation by PMA-stimulated PMNs,[3],significantly inhibited NET formation
same,Reactive oxygen species generation,[4],did not significantly inhibit
same,NET formation by histone H3 release assay of the peritoneal fluid,[5]; [7],significant quantitative decrease
same,NET formation in the peritoneal fluid (live cell imaging),[5]; [7],qualitative decrease
same,Peritoneal membrane-associated NET formation,"[5]; freshly resected peritoneal membrane, live cell imaging, standardized grid",qualitative and quantitative decrease
same,PMN phagocytosis,[6],did not significantly inhibit
B1,NET formation in PMA-stimulated human PMNs,[1],inhibits NET formation
